Data on 20 molecules can be found in article PMC5015106 (Scientific Reports, 2016).

Usually IC50 stands for the concentration that inhibits the measured activity by half.

≈ marks a conversion by molar mass, not a printed value. Numbered stars: 1 amine (or outer) side, 2 acyl side, 3 side chain; on linkers, the order of the positions; unused ones are H or OH. Bridge positions count the residues as written; N and C are the ends. Square brackets hold non-standard residues; d marks the D form. Peptide text beside a SMILES is read from it. ξ: configuration not given here. X1 = O=C([C@H](CCc1ccc(O)c(Cl)c1)N[*:1])[*:2]; NMehTyr = CN[C@@H](CCc1ccc(O)cc1)C(=O)O; Nle(6-Ph) = N[C@@H](CCCCc1ccccc1)C(=O)O; d(aIle) = CC[C@H](C)[C@@H](N)C(=O)O; hTyr = N[C@@H](CCc1ccc(O)cc1)C(=O)O; hhPhe = N[C@@H](CCCc1ccccc1)C(=O)O; aIle = CC[C@@H](C)[C@H](N)C(=O)O; hPhe = N[C@@H](CCc1ccccc1)C(=O)O; Ile(3ξ) = CCC(C)[C@H](N)C(=O)O; NMeN = CN[C@@H](CC(N)=O)C(=O)O; NMeS = CN[C@@H](CO)C(=O)O; NMeA = CN[C@@H](C)C(=O)O; CO = O=C([*:1])[*:2]; Sar = CNCC(=O)O

In one assay the target is carboxypeptidase A.
Experiment: not given
The settings on record: cited from earlier work.
In the case of `CC[C@H](C)[C@@H]1NC(=O)[C@H](NC(=O)N[C@@H](CCCNC(=N)N)C(=O)O)CCCCNC(=O)[C@H]([C@@H](C)CC)NC(=O)[C@H](CCc2ccc(O)cc2)N(C)C(=O)[C@H](CCc2ccc(O)cc2)NC1=O` [anabaenopeptin H] ({Arg-CO}-[dK]I[hTyr][NMehTyr]I; lactam 1-C), the “IC50 carboxypeptidase A” value is 3.4 µg/mL (≈ 3.68 µM).

The assay is the same for the next values; noted with them: in words; cited from earlier work.
Take `CC[C@H](C)[C@H](NC(=O)N[C@@H]1CCCCNC(=O)[C@H](CC(C)C)NC(=O)[C@H](C)N(C)C(=O)[C@H](CCc2ccc(O)cc2)NC(=O)[C@H](C(C)C)NC1=O)C(=O)O` [anabaenopeptin I] ({Ile-CO}-[dK]V[hTyr][NMeA]L; lactam 1-C): the “inhibitory concentrations carboxypeptidase A” value was “nanomolar”.

With `CC[C@H](C)[C@H](NC(=O)N[C@@H]1CCCCNC(=O)[C@H](Cc2ccccc2)NC(=O)[C@H](C)N(C)C(=O)[C@H](CCc2ccc(O)cc2)NC(=O)[C@H](C(C)C)NC1=O)C(=O)O` [anabaenopeptin J] ({Ile-CO}-[dK]V[hTyr][NMeA]F; lactam 1-C), the “inhibitory concentrations carboxypeptidase A” value is “nanomolar”.

With `CC[C@H](C)[C@@H]1NC(=O)[C@H](NC(=O)N[C@@H](Cc2ccc(O)cc2)C(=O)O)CCCCNC(=O)[C@H]([C@@H](C)CC)NC(=O)[C@H](CCc2ccc(O)cc2)N(C)C(=O)[C@H](CCc2ccc(O)cc2)NC1=O` [anabaenopeptin G] ({Tyr-CO}-[dK]I[hTyr][NMehTyr]I; lactam 1-C), the “inhibitory concentrations carboxypeptidase A” value is on record as “nanomolar”.

For the next assay, the target named is T1, TAFIa (Homo sapiens, UniProt Q96IY4).
T1 construct: purchased American Diagnostica Pr; No. 874
T1 sequence (Q96IY4 115-423): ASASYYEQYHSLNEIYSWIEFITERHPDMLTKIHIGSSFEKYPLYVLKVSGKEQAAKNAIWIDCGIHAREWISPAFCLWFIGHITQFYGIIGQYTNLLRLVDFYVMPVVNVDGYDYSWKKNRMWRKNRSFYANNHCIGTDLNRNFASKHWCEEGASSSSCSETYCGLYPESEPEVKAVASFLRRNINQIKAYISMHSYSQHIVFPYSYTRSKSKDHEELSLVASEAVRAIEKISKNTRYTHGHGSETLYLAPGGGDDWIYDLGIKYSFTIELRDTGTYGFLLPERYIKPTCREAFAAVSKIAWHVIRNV
Description: biochemical.
Conditions: not given
For the molecule `CC[C@H](C)[C@@H]1NC(=O)[C@H](CCc2ccc(O)cc2)N(C)C(=O)[C@H](CCc2ccc(O)cc2)NC(=O)[C@H](C(C)C)NC(=O)[C@H](NC(=O)N[C@@H](Cc2ccc(O)cc2)C(=O)O)CCCCNC1=O` [Compound 15, Anabaenopeptine 915] ({Tyr-CO}-[dK]V[hTyr][NMehTyr]I; lactam 1-C), half-maximal inhibition (IC50) required 530 nM.

For `CCC(C)[C@@H]1NC(=O)[C@H](NC(=O)N[C@@H](CCCCN)C(=O)O)CCCCNC(=O)[C@H](Cc2ccccc2)NC(=O)[C@H](CC(N)=O)N(C)C(=O)[C@H](CCCc2ccccc2)NC1=O` (some centres unmarked) [Compound 4, Anabaenopeptin SA4] ({Lys-CO}-[dK][Ile(3ξ)][hhPhe][NMeN]F; lactam 1-C), the IC50 was 3.4 nM.

For `CC[C@H](C)[C@@H]1NC(=O)[C@H](CCc2ccc(O)cc2)N(C)C(=O)[C@H](CCc2ccc(O)cc2)NC(=O)[C@H](C(C)C)NC(=O)[C@H](NC(=O)N[C@@H](CCCNC(=N)N)C(=O)O)CCCCNC1=O` [Compound 16, Anabaenopeptin 908] ({Arg-CO}-[dK]V[hTyr][NMehTyr]I; lactam 1-C), half-maximal inhibition (IC50) was put at 1.8 nM.

The same assay, now with this note: enzymatic inhibition assay, duplicate determination; read-out: IC50 in nM against TAFIa.
For Anabaenopeptin SA1 [Compound 5], the IC50 was 2.2 nM.

With Anabaenopeptin SA12 [Compound 12], the IC50 amounted to 4300 nM.

Take `CC[C@H](C)[C@H]1NC(=O)[C@H](NC(=O)N[C@@H](CCCCN)C(=O)O)CCCCNC(=O)[C@H](Cc2ccccc2)NC(=O)[C@H](C)N(C)C(=O)[C@H](CCc2ccc(O)cc2)NC1=O` [Compound 17, Anabaenopeptin SA3] ({Lys-CO}-[dK][d(aIle)][hTyr][NMeA]F; lactam 1-C): the IC50 stood at 2.1 nM.

On to `CC(C)[C@@H]1NC(=O)[C@H](NC(=O)N[C@@H](Cc2ccc(O)cc2)C(=O)O)CCCCNC(=O)[C@H](Cc2ccccc2)NC(=O)[C@H](C)N(C)C(=O)[C@H](CCc2ccc(O)cc2)NC1=O` [Compound 13, Anabaenopeptin A] ({Tyr-CO}-[dK]V[hTyr][NMeA]F; lactam 1-C), for which the IC50 came out at 440 nM.

For `CC[C@@H](C)C1NC(=O)[C@H](NC(=O)N[C@@H](Cc2ccccc2)C(=O)O)CCCCNC(=O)[C@H](CCc2ccc(O)c(Cl)c2)NC(=O)CN(C)C(=O)[C@H](CCc2ccc(O)cc2)NC1=O` (some centres unmarked) [Compound 11, Anabaenopeptin SA11], the IC50 stood at 15000 nM.

As for Anabaenopeptin SA5 [Compound 6], the IC50 was 790 nM.

Regarding `CC(C)[C@H]1NC(=O)[C@H](NC(=O)N[C@@H](Cc2ccccc2)C(=O)O)CCCCNC(=O)[C@H](CCc2ccc(O)c(Cl)c2)NC(=O)CN(C)C(=O)[C@H](CCc2ccc(O)cc2)NC1=O` [Compound 10, Anabaenopeptin SA10] ({Phe-CO}-[dK][dV][hTyr][Sar][X1]; lactam 1-C), the IC50 is 7000 nM.

For Anabaenopeptin SA7 [Compound 7], the IC50 came out at 13000 nM.

As for `CC[C@@H](C)C1NC(=O)[C@H](NC(=O)N[C@@H](Cc2ccccc2)C(=O)O)CCCCNC(=O)[C@H](CCc2ccccc2)NC(=O)CN(C)C(=O)[C@H](CCc2ccc(O)c(Cl)c2)NC1=O` (some centres unmarked) [Compound 9, Anabaenopeptin SA9], the IC50 was found to be 31000 nM.

For the molecule `CC(C)[C@H]1NC(=O)[C@H](NC(=O)N[C@@H](CCCN=C(N)N)C(=O)O)CCCCNC(=O)[C@H](Cc2ccccc2)NC(=O)[C@H](CO)N(C)C(=O)[C@H](CCc2ccc(O)cc2)NC1=O` [Compound 19, Anabaenopeptin SA2] ({Arg-CO}-[dK][dV][hTyr][NMeS]F; lactam 1-C), the IC50 stood at 16 nM.

Regarding `CC[C@@H](C)[C@H](NC(=O)N[C@@H]1CCCCNC(=O)[C@H](Cc2ccccc2)NC(=O)[C@H](CC(N)=O)N(C)C(=O)[C@H](CCc2ccccc2)NC(=O)[C@H]([C@H](C)CC)NC1=O)C(=O)O` [Compound 18, Anabaenopeptin SA6] ({aIle-CO}-[dK][aIle][hPhe][NMeN]F; lactam 1-C), the IC50 was found to be 51000 nM.

`CC(C)[C@H]1NC(=O)[C@H](NC(=O)N[C@@H](Cc2ccc(O)cc2)C(=O)O)CCCCNC(=O)[C@H](Cc2ccccc2)NC(=O)[C@H](CO)N(C)C(=O)[C@H](CCc2ccc(O)cc2)NC1=O` [Compound 20, Anabaenopeptin SA13] ({Tyr-CO}-[dK][dV][hTyr][NMeS]F; lactam 1-C): the IC50 stood at 2500 nM.

Regarding `CC[C@@H](C)[C@H](NC(=O)N[C@@H]1CCCCNC(=O)[C@H](Cc2ccccc2)NC(=O)[C@H](CC(N)=O)N(C)C(=O)[C@H](CCCCc2ccccc2)NC(=O)[C@@H]([C@@H](C)CC)NC1=O)C(=O)O` [Compound 8, Anabaenopeptin SA8] ({aIle-CO}-[dK][d(aIle)][Nle(6-Ph)][NMeN]F; lactam 1-C), the IC50 came to 4800 nM.
